Test results reported in patent publication US6995170B1, “Semi-hydrochloride of 8-cyano-1-cyclopropyl-7-(1S,6S-2,8-diazabicyclo[4.3.0]nonan-8-yl)-6-fluoro-1, 4-dihydro-4-oxo-3-quinolinecarboxylic acid” (Bayer Aktiengesellschaft, priority 1998, dated 2006).
Structures can show the parent of a compound that is named as a salt.

Test: Solubility in water (strength of solutions that can be prepared)

strength of solutions in water that can be prepared (solubility in water)	Compound
approximately 2.8 % (w/w)	N#Cc1c(N2C[C@@H]3CCCN[C@@H]3C2)c(F)cc2c(=O)c(C(=O)O)cn(C3CC3)c12 [CCDC hydrochloride]
about 0.02 % (w/w)	N#Cc1c(N2C[C@@H]3CCCN[C@@H]3C2)c(F)cc2c(=O)c(C(=O)O)cn(C3CC3)c12 [CCDC, 8-Cyano-1-cyclopropyl-7-(1S,6S-2,8-diazabicyclo[4.3.0]nonan-8-yl)-6-fluoro-1,4-dihydro-4-oxo-3-quinolinecarboxylic acid]
